Data: a melting point compilation (Tetko et al.; mined from patent text by program, amines drawn as free bases though some values may be those of a salt)

Structure (SMILES) | melting point [°C]
Fc1cccc2sc(C3=CCNCC3)cc12 | 83 to 86
CCC(Oc1ccc(-c2ccc(C#N)c(Cl)c2)cc1)C(O)CCc1cccnc1 (stereo not drawn) | 99 to 100
CCn1c(=O)ccc2cnc(S(C)=O)nc21 (stereo not drawn) | 202 to 203
O=C1CCCC(=O)C1Br | 153 to 154
BrCc1ccc(-c2nc3ccccn3n2)cc1 | 196
CCCCNC(=O)OC1c2ncccc2C(=O)N1c1ccc2ccc(Cl)nc2n1 (stereo not drawn) | 215
O=S(=O)(NCCCCOc1ccc(-c2cc[nH]n2)cc1)c1ccc(Br)cc1 | 157 to 158
CCn1c(C(F)(F)F)n[nH]c1=S | 93
Cc1cccc(-c2cn(C)cc(-c3cccc(C(F)(F)F)c3)c2=O)c1 | 155 to 157
CCCCCCNC(=O)Oc1ccc2c(c1)N(Cc1ccccc1)CCC2 | 85
O=C(O)c1cccc(-c2cccc(Oc3ccc(Cl)c(Cl)c3)n2)c1 | 230 to 231
C[C@H](O)CCC[C@H](O)CCCCCc1cc(O)cc(O)c1C(=O)O | 116 to 118
CS(=O)c1ccc(C2=C(c3cccc(F)c3)C(=O)C(C)(C)O2)cc1 (stereo not drawn) | 143 to 144
COc1ccc(N2C(=O)C(=C3CCCN3C)c3ccccc32)cc1F | 68 to 71
CCCCN(c1cccc(-c2ccnc3c([N+](=O)[O-])cnn23)c1)S(C)(=O)=O | 153 to 155
Cc1nn(-c2c(Cl)cc(C(F)(F)F)cc2Cl)nc1C#N | 53
C[C@]12CC[C@@H]3c4ccc(OCC(=O)O)cc4CC[C@H]3[C@@H]1CCC2=O | 205 to 208
C=CCSc1nc(N)nc2c1ncn2[C@@H]1C[C@H](CO)[C@@H](O)C1 | 133 to 134
CC(C)c1ccccc1NC#N | 75 to 77
COc1ccc(-c2nc3ccc(OC(F)(F)F)cc3[nH]2)cc1 | 200 to 202
CCCCc1c(CN2C(=O)c3ccccc3C2=O)c(CC(C)C)nc2ccc(OCc3ccccc3)cc12 | 166 to 168

Structure (SMILES) | melting point [°C]
O=C(Nc1ccc(Oc2ccnc(-n3ccnc3)n2)c2ccccc12)c1cc(F)cc(N2CCOCC2)c1 | 153 to 154
O=C(CCC(=O)N1CCN(c2ccc(N3C[C@H](CNC(=S)C4CC4)OC3=O)cc2F)CC1)c1ccc(CN2CCOCC2)cc1 | 173 to 174
CCCC(=O)N[C@H]1CC[C@H](CCN2CCC(c3cccc4c3CCO4)CC2)CC1 | 196
COC(=O)c1c(NC(C)=O)sc2c1CCC(C(C)(C)C)C2 (stereo not drawn) | 117 to 118
CCN(CC)C(=O)N(C)C(=O)Nc1ccccc1 | 88 to 89.5
C[C@H]1CCCC(C)(C)[C@@H]1[C@H](O)c1ccc(F)cc1 | 55 to 57
COC(=O)C(Cc1c[nH]c2ccccc12)NC1CCC(c2ccccc2)(N(C)C)CC1 (stereo not drawn) | 60 to 65
O=C(O)CCCC12CCC(=O)N1C(=O)CC2 | 178 to 180
CN(C)c1ccc(-c2ccc(C(=O)Nc3cccc(CC(=O)O)c3)o2)cc1 | 187 to 190
FC(F)(F)c1cccc(CSc2nnc(-c3ccc4ncsc4c3)o2)c1 | 112 to 113
CNC(=O)C1CCNc2ccccc21 (stereo not drawn) | 107
O=C1Nc2ccccc2C1CCCCN1CCN(c2cccc(Cl)c2)CC1 (stereo not drawn) | 112 to 114
CC(=O)c1cnc(N)o1 | 214 to 215
CC(C)(C)OC(=O)N[C@H]1CNC1=O | 173 to 175
COc1ccc2nc(O)c(O)nc2c1 | > 300
COc1cc2ncc(C#N)c(Nc3cccc(F)c3)c2cc1OC | 226 to 230
Cc1cc(OC(=O)N[C@@H](CCC(=O)O)C(=O)O)ccc1N(CCCl)CCCl | 160 to 162
NC(=O)c1[nH]c2ccc(Cl)cc2c1S(=O)(=O)c1ccccc1Cl | 267
CCN(CCc1ccc(Nc2ncc3c(n2)-c2ccccc2C(c2cccc(Br)c2)C3)cc1)C(C)C (stereo not drawn) | 67 to 69
CCN(Cc1ccccc1)C(=O)Cc1c(-c2ccc(C)cc2)nc2cc(C)ccn12 | 220 to 222
CCOc1nc2cccc(C(=O)O)c2n1Cc1ccc(-c2ccccc2-c2nnnn2C(c2ccccc2)(c2ccccc2)c2ccccc2)cc1 | 168 to 170

Structure (SMILES) | melting point [°C]
O=c1oc2cc(O)ccc2c(O)c1C1=CCOc2oc3ccccc3c(=O)c21 | > 300
Cc1c(Cl)cccc1NC(=O)Nc1ccc(-n2nc(C(F)(F)F)cc2C(F)(F)F)cc1 | 193 to 196
c1cc2c(c(OCC3CO3)c1)CC1OC1C2 (stereo not drawn) | 85 to 87
Cc1nc(=O)c(C)c(NCCc2cccn2C)[nH]1 | 246 to 247
O=C(O)c1[nH]c(=O)[nH]c(=O)c1[N+](=O)[O-] | > 300
COc1ccc(CN(CCN(C)CCCCCCNC(=S)NCCSCc2csc(NC(=N)N)n2)c2ccccn2)cc1 | 78
CCc1ccc(S(=O)(=O)NC(C)(C)C)o1 | 71 to 72
O=C1c2cccc3cccc(c23)C(=O)N1CCN1CCN(CCO)CC1 | 165 to 166
CCc1ccc(SCCC(=O)O)cc1 | 59 to 60
O=C(O)c1cccc2c1CCc1cc(O)ccc1S2 | 210 to 211
CCCCCCc1ccc2c3ccc(C=O)cc3n(C)c2c1 | 55 to 56
CN1C(=O)CCC2(C)c3ccc(Sc4ccc5ccccc5n4)cc3CCC12 (single isomer, unassigned; (+)) | 175 to 177
Cn1cc(C(=O)c2ccncc2)cc1C(=O)c1ccc(Cl)cc1 | 174 to 175
CCC1(C)CC(NC(=O)C(=O)NC2CC(C)(CC)N(C(C)=O)C(C)(CC)C2C)C(C)C(C)(CC)N1C(C)=O (stereo not drawn) | 164
CC(Oc1ncn(-c2ccc(C(F)(F)F)cc2)n1)C(=O)O (stereo not drawn) | 215 to 218
O=C(O)c1ccccc1C(=O)NCCCCc1cccnc1 | 132 to 135
CCCCOC(=O)c1ccc(N2CCN(c3ccc(CC(C)O)cc3)CC2)cc1 (stereo not drawn) | 85 to 86
COCC(O)COc1cccc2c1CCNC2=O (stereo not drawn) | 119 to 123
CN(C)C(=O)CN1CCC(c2ccc(Nc3nc4c(-c5cnn(-c6ccc(F)cc6)c5)cccn4n3)cc2)CC1 | 131 to 133
Cc1ccc2c(c1)c(Cl)c(C#N)c(=O)n2Cc1ccccc1 | 219
CC(=O)Cc1ccc(O)cn1 | 119 to 120

The next lines start with the values.

melting point [°C] | Structure (SMILES)
177 to 178 | CCOC(=O)c1cn(C(C)C(=O)c2ccccc2)c2nc(-c3ccccc3)c(C)n2c1=O (stereo not drawn)
140 to 141 | CCCC(=O)OCC(=O)C12OCOC1CC1C3CCC4=CC(=O)C=CC4(C)C3C(O)CC12C (stereo not drawn)
202 to 204 | CC(=O)Nc1nc(CCc2ccc(N)cc2)c(-c2ccc(S(C)(=O)=O)cc2)s1
168 to 170 | CCNC(=S)NS(=O)(=O)c1cc(CCNC(=O)c2cc(Cl)ccc2OC)ccc1-c1ccccc1
95 to 99 | CCOC(=O)c1cc2c(C)noc2nc1C(=O)OCC
62 to 64 | CCOC(=O)c1cc(C#N)c(C=O)nc1N1CCCCC1
157 to 159 | CC(C)[C@H](NC(=O)OCc1csc(N(C)C)n1)C(=O)N[C@@H](Cc1ccccc1)[C@@H](O)C[C@H](Cc1ccccc1)NC(=O)OCc1cncs1
172 to 174 | COc1ccc(CCOc2ccc(C(=O)N/C(=C\c3ccc(OCC(F)F)cc3)C(=O)NCCO)cc2)cc1
159 to 160 | C#CCc1c(C)nc2c(OCc3c(C)cccc3NC(=S)NC(=O)c3ccccc3)cccn12
80 to 83 | CC(=O)c1cc2c(cc1OCCCCCBr)OC(C(=O)OC(C)C(C)O)CC2 (stereo not drawn)
139 | COc1cccc(Oc2c(NS(=O)(=O)c3ccc(C(C)(C)C)cc3)nc(C)nc2OCCO)c1
94.5 to 95.5 | CCOC(=O)c1oc(Br)nc1C
218 to 220 | COc1ccnc(CSc2nc3cc4c(cc3[nH]2)C(C)(C)C(=O)C4(C)C)c1C
174 to 176 | CCOC(=O)c1ccc(-c2cnc(-c3ccc(C(F)(F)F)cc3)s2)cc1
115 to 116 | CC(C)(C)C(=O)OCc1nc(-c2cc(C(C)(C)C)c(O)c(C(C)(C)C)c2)cs1
108 to 110 | CCCc1c(OCCOc2ccccc2C(=O)O)ccc(C(C)=O)c1O
135 to 136 | CCOC(=O)c1cc(=O)c2c(OCC(O)COc3ccc(OC)cc3)cccc2o1 (stereo not drawn)
160 to 163 | COC(COC(=O)C1=C(C)NC2=C(C(=O)CNC2)C1c1cccc(Cl)c1C)c1ccccc1 (stereo not drawn)

melting point [°C] | Structure (SMILES)
147 to 149 | CCCc1ccc(NC(=O)c2cccnc2NCc2ccncc2)cc1C(F)(F)F
125 to 130 | CN(Cc1cc2c3c(c1)c(=O)c(C(=O)NCc1ccc(Cl)cc1)cn3CC(=O)N2C)C[C@@H](O)c1nccs1
204 | O=C(OCc1ccncc1)c1ccc2[nH]c(=O)n(Cc3ccc4c(c3)OCO4)c(=O)c2c1
228 to 230 | CCCC(=O)c1cnc2cc(Nc3ccc(O)cc3C)sc2c1
> 250 | COc1ccc(Nc2nc(-c3cccc(C(=O)Nc4ccc(C(=O)O)cc4)c3)cn3ccnc23)cc1OC
54 | COC(=O)CC1C(OC(C)=O)CC(=O)C1C(=O)OC (stereo not drawn)
146 to 148 | COc1ccc(/C=C/C(=O)OCC(=O)COC(=O)/C=C/c2ccc(OC)cc2)cc1
159 to 161 | CCCCc1nc2c(c(=O)[nH]1)CN(C(=O)C(C)(C)O)CC2
149 | COC(C)(OC)c1nn(-c2c(Cl)cc(C(F)(F)F)cc2Cl)c(N)c1SC
188 | CCc1ccc(-c2ccc(C(=O)Nc3cc4ncc(CN5CCCC5)cc4cc3C)cc2)cc1
228 to 231 | CCCC(=O)c1c[nH]c2cc(COC(=O)c3ccccc3)ccc2c1=O
175 to 180 | CCOC(=O)c1c(SCC(=O)COC(C)=O)nc2c(F)c(F)c(F)cc2c1O
191 to 192 | CSc1nc(N)nc(N)c1-c1ccc(Cl)cc1Cl
208 | C=CCn1cc(C(=O)O)c(=O)c2cc(F)c(N3CCN(C)CC3)cc21
215 to 216 | CC(=O)Nc1cccc(C#Cc2c(F)c(F)nc(F)c2F)c1
110 to 115 | CCNc1nc(=O)n(Cc2ccc(OC)c(OC3CCCC3)c2)c2nc(C(C)C)[nH]c12
143 | CCCCCOc1ccc(C(=O)Nc2ccc3cc(CN4CCCC4)cnc3c2C)c(F)c1
